Source: patent publication US10815230B2, “Casein kinase 1 delta inhibitor” (ELECTROPHORETICS LIMITED, priority 2015, dated 2020)

Key:
Experiment in all cases: KINOMEscan binding assay
Settings in all cases: read-out: % Ctrl @ 10000 nM
MAP3K1 = target: T1, MAP3K1 (Homo sapiens, UniProt Q13233)
T1 construct: T7 phage fusion (most assays) or DNA label after HEK293 expression; purchased DiscoveRx (KINOMEscan, LeadHunter Discovery services); host or cells: T7 phage in E. coli (BL21-derived) or HEK293

DAPK3 = DAPK3 (Homo sapiens, UniProt O43293)
NIK = NIK (Homo sapiens, UniProt Q99558)
RIPK2 = RIPK2 (Homo sapiens, UniProt O43353)
NDR1 = NDR1 (Homo sapiens, UniProt Q15208)
MEK5 = MEK5 (Homo sapiens, UniProt Q13163)
ERK2 = ERK2 (Homo sapiens, UniProt P28482)
PIK3CB = PIK3CB (Homo sapiens, UniProt P42338)
ERK4 = ERK4 (Homo sapiens, UniProt P31152)
MKNK1 = MKNK1 (Homo sapiens, UniProt Q9BUB5)
ULK2 = target: T2, ULK2 (Homo sapiens, UniProt Q8IYT8)
T2 construct: purchased DiscoveRx (KINOMEscan, LeadHunter Discovery services)

PRKCI = PRKCI (Homo sapiens, UniProt P41743)
STK36 = STK36 (Homo sapiens, UniProt Q9NRP7)
MYLK2 = MYLK2 (Homo sapiens, UniProt Q9H1R3)
PFTAIRE2 = PFTAIRE2 (Homo sapiens, UniProt Q96Q40)
CSF1R = CSF1R (Homo sapiens, UniProt P07333)
RIOK3 = RIOK3 (Homo sapiens, UniProt O14730)
MET = MET (Homo sapiens, UniProt P08581)
EGFR (S752-I759del) = EGFR (S752-I759del) (Homo sapiens, UniProt P00533, DEL752-759)
MYO3A = MYO3A (Homo sapiens, UniProt Q8NEV4)
FAK = FAK (Homo sapiens, UniProt Q05397)
[1] = target: EGFR (L747-T751del, Sins) (Homo sapiens, UniProt P00533, DEL747-750/T751S)
KIT = KIT (Homo sapiens, UniProt P10721)
[2] = target: RSK4 Kin.Dom.1-N-terminal (Homo sapiens, UniProt Q9UK32)
MST3 = MST3 (Homo sapiens, UniProt Q9Y6E0)
STK35 = STK35 (Homo sapiens, UniProt Q8TDR2)
MARK3 = MARK3 (Homo sapiens, UniProt P27448)
YANK2 = target: T3, YANK2 (Homo sapiens, UniProt Q9NY57)
T3 construct: purchased DiscoveRx (KINOMEscan, LeadHunter Discovery services)

EPHB2 = EPHB2 (Homo sapiens, UniProt P29323)
PAK7 = PAK7 (Homo sapiens, UniProt Q9P286)
GRK7 = GRK7 (Homo sapiens, UniProt Q8WTQ7)
PLK2 = PLK2 (Homo sapiens, UniProt Q9NYY3)
PIK3CA (E542K) = PIK3CA (E542K) (Homo sapiens, UniProt P42336, E542K)
ACVRL1 = ACVRL1 (Homo sapiens, UniProt P37023)
MYLK = MYLK (Homo sapiens, UniProt Q15746)
ACVR2A = ACVR2A (Homo sapiens, UniProt P27037)
MAP4K4 = target: T4, MAP4K4 (Homo sapiens, UniProt O95819)
T4 construct: T7 phage fusion (most assays) or DNA label after HEK293 expression; purchased DiscoveRx (KINOMEscan, LeadHunter Discovery services); host or cells: T7 phage in E. coli (BL21-derived) or HEK293

RAF1 = RAF1 (Homo sapiens, UniProt P04049)
CAMK2A = CAMK2A (Homo sapiens, UniProt Q9UQM7)
MAPKAPK2 = target: T5, MAPKAPK2 (Homo sapiens, UniProt P49137)
T5 construct: T7 phage fusion (most assays) or DNA label after HEK293 expression; purchased DiscoveRx (KINOMEscan, LeadHunter Discovery services); host or cells: T7 phage in E. coli (BL21-derived) or HEK293

MAP3K15 = target: T6, MAP3K15 (Homo sapiens, UniProt Q6ZN16)
T6 construct: T7 phage fusion (most assays) or DNA label after HEK293 expression; purchased DiscoveRx (KINOMEscan, LeadHunter Discovery services); host or cells: T7 phage in E. coli (BL21-derived) or HEK293

Chain of MST3 (Q9Y6E0 whole entry): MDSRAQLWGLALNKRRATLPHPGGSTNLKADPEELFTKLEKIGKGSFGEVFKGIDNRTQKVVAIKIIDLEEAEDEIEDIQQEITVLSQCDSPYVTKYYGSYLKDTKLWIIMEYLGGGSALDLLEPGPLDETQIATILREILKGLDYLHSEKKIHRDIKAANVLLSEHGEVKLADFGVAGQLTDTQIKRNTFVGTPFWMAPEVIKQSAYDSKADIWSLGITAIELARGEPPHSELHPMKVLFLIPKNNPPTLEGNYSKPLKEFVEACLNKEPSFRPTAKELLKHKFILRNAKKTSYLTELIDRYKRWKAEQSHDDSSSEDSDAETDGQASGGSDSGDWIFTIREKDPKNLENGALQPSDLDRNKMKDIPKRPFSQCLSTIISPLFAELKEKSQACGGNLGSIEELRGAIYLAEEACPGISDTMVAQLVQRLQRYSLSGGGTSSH
Chain of FAK (Q05397 whole entry): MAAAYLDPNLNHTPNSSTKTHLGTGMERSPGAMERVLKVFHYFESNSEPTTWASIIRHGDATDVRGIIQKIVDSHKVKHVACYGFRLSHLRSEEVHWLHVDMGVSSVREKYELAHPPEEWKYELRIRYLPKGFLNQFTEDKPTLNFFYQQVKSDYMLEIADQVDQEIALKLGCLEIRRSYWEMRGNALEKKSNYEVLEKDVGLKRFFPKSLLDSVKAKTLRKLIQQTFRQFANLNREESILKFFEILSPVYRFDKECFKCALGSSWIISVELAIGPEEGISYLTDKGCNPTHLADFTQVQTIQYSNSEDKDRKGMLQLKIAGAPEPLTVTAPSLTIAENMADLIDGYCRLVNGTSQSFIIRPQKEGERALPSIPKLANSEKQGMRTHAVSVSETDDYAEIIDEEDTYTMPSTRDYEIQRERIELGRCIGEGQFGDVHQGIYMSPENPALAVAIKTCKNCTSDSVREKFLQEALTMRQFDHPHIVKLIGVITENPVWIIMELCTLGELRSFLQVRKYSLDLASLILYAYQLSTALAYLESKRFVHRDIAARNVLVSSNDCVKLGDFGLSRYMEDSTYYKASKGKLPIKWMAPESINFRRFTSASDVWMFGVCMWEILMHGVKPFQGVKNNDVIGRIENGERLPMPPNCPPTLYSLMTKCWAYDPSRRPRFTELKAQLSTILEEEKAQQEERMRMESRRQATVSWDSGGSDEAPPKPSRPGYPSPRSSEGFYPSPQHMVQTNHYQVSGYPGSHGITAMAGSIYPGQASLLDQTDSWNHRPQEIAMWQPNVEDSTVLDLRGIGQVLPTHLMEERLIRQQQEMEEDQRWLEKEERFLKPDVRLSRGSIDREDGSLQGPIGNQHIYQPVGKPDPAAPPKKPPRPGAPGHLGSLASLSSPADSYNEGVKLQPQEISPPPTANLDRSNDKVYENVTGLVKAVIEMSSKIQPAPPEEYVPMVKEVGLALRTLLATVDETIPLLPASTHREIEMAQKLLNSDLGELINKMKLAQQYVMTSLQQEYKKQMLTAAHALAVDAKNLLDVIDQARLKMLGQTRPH
Chain of ACVR2A (P27037 20-513): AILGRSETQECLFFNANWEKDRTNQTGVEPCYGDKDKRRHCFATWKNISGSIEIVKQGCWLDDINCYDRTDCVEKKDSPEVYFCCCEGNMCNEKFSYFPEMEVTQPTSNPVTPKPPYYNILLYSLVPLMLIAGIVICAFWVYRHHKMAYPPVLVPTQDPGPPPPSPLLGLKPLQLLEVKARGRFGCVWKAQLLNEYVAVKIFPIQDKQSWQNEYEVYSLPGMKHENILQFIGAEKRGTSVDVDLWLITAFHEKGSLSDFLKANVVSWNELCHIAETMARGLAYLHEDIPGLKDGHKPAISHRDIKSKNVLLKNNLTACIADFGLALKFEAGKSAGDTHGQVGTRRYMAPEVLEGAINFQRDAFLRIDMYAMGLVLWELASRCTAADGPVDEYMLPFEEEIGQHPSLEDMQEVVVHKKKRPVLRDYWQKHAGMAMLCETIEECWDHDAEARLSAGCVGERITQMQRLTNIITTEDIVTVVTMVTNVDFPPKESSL
Chain of EGFR (S752-I759del) (P00533 with tags, fused parts or gaps DEL752-759): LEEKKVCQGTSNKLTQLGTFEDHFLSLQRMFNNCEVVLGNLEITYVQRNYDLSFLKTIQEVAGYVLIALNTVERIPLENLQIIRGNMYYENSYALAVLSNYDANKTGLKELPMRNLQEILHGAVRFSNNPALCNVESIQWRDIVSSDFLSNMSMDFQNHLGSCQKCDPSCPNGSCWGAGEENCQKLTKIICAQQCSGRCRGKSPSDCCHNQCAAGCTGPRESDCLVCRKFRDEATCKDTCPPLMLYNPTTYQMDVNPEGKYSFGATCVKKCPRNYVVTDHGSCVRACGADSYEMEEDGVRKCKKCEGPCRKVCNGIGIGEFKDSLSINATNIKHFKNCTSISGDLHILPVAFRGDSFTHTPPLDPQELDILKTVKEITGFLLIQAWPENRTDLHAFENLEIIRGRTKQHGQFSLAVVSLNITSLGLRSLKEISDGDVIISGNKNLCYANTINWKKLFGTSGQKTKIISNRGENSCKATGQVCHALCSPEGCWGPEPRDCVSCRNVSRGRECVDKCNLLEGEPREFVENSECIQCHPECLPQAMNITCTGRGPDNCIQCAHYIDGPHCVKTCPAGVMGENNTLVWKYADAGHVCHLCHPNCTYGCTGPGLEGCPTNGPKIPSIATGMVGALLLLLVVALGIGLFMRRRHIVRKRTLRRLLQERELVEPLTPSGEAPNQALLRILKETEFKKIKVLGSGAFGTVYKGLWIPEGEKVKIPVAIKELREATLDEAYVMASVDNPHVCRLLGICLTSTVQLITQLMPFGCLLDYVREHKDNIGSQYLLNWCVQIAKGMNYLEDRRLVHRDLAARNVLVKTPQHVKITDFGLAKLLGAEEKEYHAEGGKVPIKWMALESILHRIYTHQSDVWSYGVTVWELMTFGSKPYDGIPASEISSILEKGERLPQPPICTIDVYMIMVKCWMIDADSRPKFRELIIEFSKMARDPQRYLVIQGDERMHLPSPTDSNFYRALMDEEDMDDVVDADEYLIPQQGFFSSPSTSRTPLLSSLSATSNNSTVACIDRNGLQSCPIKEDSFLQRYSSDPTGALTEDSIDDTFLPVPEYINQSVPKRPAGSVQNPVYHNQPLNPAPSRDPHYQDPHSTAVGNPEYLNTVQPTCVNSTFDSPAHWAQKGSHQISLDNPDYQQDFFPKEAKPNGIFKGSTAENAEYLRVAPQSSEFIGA
Chain of MKNK1 (Q9BUB5 whole entry): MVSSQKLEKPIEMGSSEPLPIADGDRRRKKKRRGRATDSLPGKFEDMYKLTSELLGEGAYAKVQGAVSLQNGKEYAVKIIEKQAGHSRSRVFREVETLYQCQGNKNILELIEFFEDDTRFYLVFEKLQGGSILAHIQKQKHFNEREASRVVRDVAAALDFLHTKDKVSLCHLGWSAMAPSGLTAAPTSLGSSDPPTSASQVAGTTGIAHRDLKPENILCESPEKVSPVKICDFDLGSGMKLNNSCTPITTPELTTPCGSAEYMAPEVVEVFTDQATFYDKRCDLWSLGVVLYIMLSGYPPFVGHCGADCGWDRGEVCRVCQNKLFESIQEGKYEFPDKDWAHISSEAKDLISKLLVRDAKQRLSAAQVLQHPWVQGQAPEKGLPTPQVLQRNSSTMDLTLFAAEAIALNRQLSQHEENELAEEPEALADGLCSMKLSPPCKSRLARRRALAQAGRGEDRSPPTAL
Chain of MYLK2 (Q9H1R3 whole entry): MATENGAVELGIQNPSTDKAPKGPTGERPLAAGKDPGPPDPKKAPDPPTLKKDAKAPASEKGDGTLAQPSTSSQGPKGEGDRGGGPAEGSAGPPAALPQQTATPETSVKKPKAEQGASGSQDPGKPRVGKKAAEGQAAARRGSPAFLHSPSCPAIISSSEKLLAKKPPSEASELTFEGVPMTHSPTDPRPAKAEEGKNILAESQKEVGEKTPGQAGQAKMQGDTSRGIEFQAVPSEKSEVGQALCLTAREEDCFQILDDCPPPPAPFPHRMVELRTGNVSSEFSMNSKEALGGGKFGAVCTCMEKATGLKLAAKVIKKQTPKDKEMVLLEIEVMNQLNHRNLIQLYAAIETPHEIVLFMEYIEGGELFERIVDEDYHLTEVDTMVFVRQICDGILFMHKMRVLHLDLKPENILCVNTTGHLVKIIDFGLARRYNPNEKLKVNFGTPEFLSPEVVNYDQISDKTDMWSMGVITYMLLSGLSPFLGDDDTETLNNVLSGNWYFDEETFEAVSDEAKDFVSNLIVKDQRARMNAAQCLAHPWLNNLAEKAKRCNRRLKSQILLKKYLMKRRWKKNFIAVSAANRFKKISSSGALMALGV
T3 sequence (Q9NY57 whole entry): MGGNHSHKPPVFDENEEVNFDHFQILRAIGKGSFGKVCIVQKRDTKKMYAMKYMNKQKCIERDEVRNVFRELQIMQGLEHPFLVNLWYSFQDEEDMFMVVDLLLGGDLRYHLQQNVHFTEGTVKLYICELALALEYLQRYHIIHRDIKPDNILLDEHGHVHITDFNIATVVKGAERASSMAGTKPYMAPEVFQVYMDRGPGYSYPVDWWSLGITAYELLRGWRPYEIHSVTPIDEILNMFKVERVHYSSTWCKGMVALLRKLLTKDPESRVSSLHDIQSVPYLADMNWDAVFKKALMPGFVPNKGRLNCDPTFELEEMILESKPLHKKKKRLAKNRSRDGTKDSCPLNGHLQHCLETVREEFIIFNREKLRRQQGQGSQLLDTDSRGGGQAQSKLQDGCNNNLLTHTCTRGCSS
Chain of ERK2 (P28482 whole entry): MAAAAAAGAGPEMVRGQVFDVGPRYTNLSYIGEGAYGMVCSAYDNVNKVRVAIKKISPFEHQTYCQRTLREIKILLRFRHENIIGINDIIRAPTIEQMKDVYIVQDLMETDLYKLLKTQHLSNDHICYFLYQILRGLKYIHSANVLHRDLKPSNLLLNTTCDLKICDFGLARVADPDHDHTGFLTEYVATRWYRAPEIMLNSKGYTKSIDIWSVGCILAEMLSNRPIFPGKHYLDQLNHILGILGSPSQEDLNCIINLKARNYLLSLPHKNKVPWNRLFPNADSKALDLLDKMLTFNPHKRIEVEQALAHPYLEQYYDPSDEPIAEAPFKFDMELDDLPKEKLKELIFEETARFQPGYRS

Compound: Nc1ncc(-c2nc3ccccc3o2)c(-c2ccncc2)n1 [Comparative Compound 324, 5-(1,3-benzoxazol-2-yl)-4-(pyridine-4-yl)pyrimidin-2-amine]
- remaining binding at 10 µM (MAP3K1): 85%
- remaining binding at 10 µM (DAPK3): 100%
- remaining binding at 10 µM (NIK): 100%
- remaining binding at 10 µM (RIPK2): 85%
- remaining binding at 10 µM (NDR1): 73%
- remaining binding at 10 µM (MEK5): 66%
- remaining binding at 10 µM (ERK2): 99%
- remaining binding at 10 µM (PIK3CB): 100%
- remaining binding at 10 µM (ERK4): 90%
- remaining binding at 10 µM (MKNK1): 96%
- remaining binding at 10 µM (ULK2): 100%
- remaining binding at 10 µM (PRKCI): 65%
- remaining binding at 10 µM (STK36): 96%
- remaining binding at 10 µM (MYLK2): 100%
- remaining binding at 10 µM (PFTAIRE2): 100%
- remaining binding at 10 µM (CSF1R): 74%
- remaining binding at 10 µM (RIOK3): 57%
- remaining binding at 10 µM (MET): 91%
- remaining binding at 10 µM (EGFR (S752-I759del)): 84%
- remaining binding at 10 µM (MYO3A): 98%
- remaining binding at 10 µM (FAK): 99%
- remaining binding at 10 µM [1]: 54%
- remaining binding at 10 µM (KIT): 91%
- remaining binding at 10 µM [2]: 85%
- remaining binding at 10 µM (MST3): 98%
- remaining binding at 10 µM (STK35): 100%
- remaining binding at 10 µM (MARK3): 100%
- remaining binding at 10 µM (YANK2): 70%
- remaining binding at 10 µM (EPHB2): 99%
- remaining binding at 10 µM (PAK7): 96%
- remaining binding at 10 µM (GRK7): 91%
- remaining binding at 10 µM (PLK2): 92%
- remaining binding at 10 µM (PIK3CA (E542K)): 98%
- remaining binding at 10 µM (ACVRL1): 100%
- remaining binding at 10 µM (MYLK): 86%
- remaining binding at 10 µM (ACVR2A): 100%
- remaining binding at 10 µM (MAP4K4): 97%
- remaining binding at 10 µM (RAF1): 100%
- remaining binding at 10 µM (CAMK2A): 99%
- remaining binding at 10 µM (MAPKAPK2): 100%
- remaining binding at 10 µM (MAP3K15): 100%

Compound: CNc1c(C(N)=O)c2ccccn2c1C(=O)c1ccc(F)cc1 [Compound A, 2-methyl-amino-3-[(4-fluorophenyl)carbonyl]indolizine-1-carboxamide]
- remaining binding at 10 µM (MAP3K1): 76%
- remaining binding at 10 µM (DAPK3): 86%
- remaining binding at 10 µM (NIK): 100%
- remaining binding at 10 µM (RIPK2): 67%
- remaining binding at 10 µM (NDR1): 74%
- remaining binding at 10 µM (MEK5): 51%
- remaining binding at 10 µM (ERK2): 78%
- remaining binding at 10 µM (PIK3CB): 100%
- remaining binding at 10 µM (ERK4): 78%
- remaining binding at 10 µM (MKNK1): 100%
- remaining binding at 10 µM (ULK2): 95%
- remaining binding at 10 µM (PRKCI): 69%
- remaining binding at 10 µM (STK36): 69%
- remaining binding at 10 µM (MYLK2): 100%
- remaining binding at 10 µM (PFTAIRE2): 100%
- remaining binding at 10 µM (CSF1R): 87%
- remaining binding at 10 µM (RIOK3): 72%
- remaining binding at 10 µM (MET): 100%
- remaining binding at 10 µM (EGFR (S752-I759del)): 18%
- remaining binding at 10 µM (MYO3A): 98%
- remaining binding at 10 µM (FAK): 92%
- remaining binding at 10 µM [1]: 12%
- remaining binding at 10 µM (KIT): 32%
- remaining binding at 10 µM [2]: 64%
- remaining binding at 10 µM (MST3): 71%
- remaining binding at 10 µM (STK35): 100%
- remaining binding at 10 µM (MARK3): 88%
- remaining binding at 10 µM (YANK2): 78%
- remaining binding at 10 µM (EPHB2): 82%
- remaining binding at 10 µM (PAK7): 96%
- remaining binding at 10 µM (GRK7): 65%
- remaining binding at 10 µM (PLK2): 71%
- remaining binding at 10 µM (PIK3CA (E542K)): 90%
- remaining binding at 10 µM (ACVRL1): 100%
- remaining binding at 10 µM (MYLK): 71%
- remaining binding at 10 µM (ACVR2A): 98%
- remaining binding at 10 µM (MAP4K4): 86%
- remaining binding at 10 µM (RAF1): 95%
- remaining binding at 10 µM (CAMK2A): 70%
- remaining binding at 10 µM (MAPKAPK2): 100%
- remaining binding at 10 µM (MAP3K15): 94%
